In ChEMBL document CHEMBL1201862, “PubChem BioAssay data set” (2004):
Values joined by “and” are separate entries in the source; they are usually repeats but may differ in a detail not shown here. Equal entries are not always repeated.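 The compound was tested at five concentrations on cells cultured in 96-well plates, with a 48-hour exposure period. GI50 is the concentration that inhibits growth by half.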 Active and inactive are the calls of the source. Cut-off read from the data, not from the text of the source: active = GI50 up to about 1.1 µM and inactive = higher.

What was measured:
Experiment in all cases: NCI-60 cell line screen, 48 h
A498 = system: A498
DMS-273 = system: DMS-273
EKVX = system: EKVX
MCF7 = system: MCF7
U-251 = system: U-251
UO-31 = system: UO-31
786-0 = system: 786-0
A549 = system: A549
ACHN = system: ACHN
BT-549 = system: BT-549
CAKI-1 = system: CAKI-1
CCRF-CEM = system: CCRF-CEM
COLO 205 = system: COLO 205
DU-145 = system: DU-145
HCC 2998 = system: HCC 2998
HCT-116 = system: HCT-116
HCT-15 = system: HCT-15
HL-60 = system: HL-60
HOP-62 = system: HOP-62
HOP-92 = system: HOP-92
HT-29 = system: HT-29
Hs-578T = system: Hs-578T
IGROV-1 = system: IGROV-1
K562 = system: K562
KM12 = system: KM12
LOX IMVI = system: LOX IMVI
M14 = system: M14
MDA-MB-231 = system: MDA-MB-231
MDA-MB-435 = system: MDA-MB-435
MDA-N = system: MDA-N
MOLT-4 = system: MOLT-4
Malme-3M = system: Malme-3M
NCI-H226 = system: NCI-H226
NCI-H23 = system: NCI-H23
NCI-H460 = system: NCI-H460
NCI-H522 = system: NCI-H522
NCI/ADR-RES = system: NCI/ADR-RES
OVCAR-3 = system: OVCAR-3
OVCAR-4 = system: OVCAR-4
OVCAR-5 = system: OVCAR-5
OVCAR-8 = system: OVCAR-8
PC-3 = system: PC-3
RPMI-8226 = system: RPMI-8226
RXF 393 = system: RXF 393
SF-268 = system: SF-268
SF-295 = system: SF-295
SF-539 = system: SF-539
SK-MEL-28 = system: SK-MEL-28
SK-MEL-2 = system: SK-MEL-2
SK-MEL-5 = system: SK-MEL-5
SK-OV-3 = system: SK-OV-3
SN12C = system: SN12C
SNB-19 = system: SNB-19
SNB-75 = system: SNB-75
SR = system: SR
SW-620 = system: SW-620
T47D = system: T47D
TK-10 = system: TK-10
UACC-257 = system: UACC-257
UACC-62 = system: UACC-62
DLD-1 = system: DLD-1
KM-20L2 = system: KM-20L2
LXFL 529 = system: LXFL 529
M19-MEL = system: M19-MEL
SNB-78 = system: SNB-78

Measured: GI50

NC(=O)c1cn(C2OC(CO)C(O)C2O)c2ncnc(N)c12 (stereo not given)
active: A498 0.0724 µM | DMS-273 0.0213 µM | EKVX 0.0453 µM | MCF7 0.07 µM | U-251 0.07 µM | UO-31 0.07 µM

CC(=O)OC(CC(C)C)P1(=O)N(CC(C)(C)C)[C@@H]2CCCC[C@H]2N1CC(C)(C)C (stereo not given in full)
inactive: 786-0 10.8 µM | A498 7.06 µM | A549 5.42 µM | ACHN 7.28 µM | BT-549 15.5 µM | CAKI-1 12.7 µM | CCRF-CEM 13.2 µM | COLO 205 6 µM | DU-145 15.3 µM | EKVX 11.2 µM | HCC 2998 6.38 µM | HCT-116 5.24 µM | HL-60 5.71 µM | HOP-62 14.6 µM | HOP-92 2.58 µM | HT-29 7.1 µM | Hs-578T 9.75 µM | IGROV-1 11.7 µM | K562 8.47 µM | KM12 9.66 µM | LOX IMVI 11.9 µM | M14 7.4 µM | MCF7 6.35 µM | MDA-MB-231 7.24 µM | MDA-MB-435 12.3 µM | MDA-N 8.26 µM | MOLT-4 9.62 µM | Malme-3M 9.33 µM | NCI-H226 10.4 µM | NCI-H23 10.2 µM | NCI-H460 8.57 µM | NCI-H522 6.4 µM | NCI/ADR-RES 8.3 µM | OVCAR-3 9.23 µM | OVCAR-4 9.42 µM | OVCAR-5 10.2 µM | OVCAR-8 8.2 µM | PC-3 3.73 µM | RPMI-8226 4.01 µM | RXF 393 6.38 µM | SF-268 15.1 µM | SF-295 7.5 µM | SF-539 10.5 µM | SK-MEL-28 14.2 µM | SK-MEL-2 7.6 µM | SK-MEL-5 9.4 µM | SK-OV-3 15.1 µM | SN12C 10.7 µM | SNB-19 9.29 µM | SNB-75 7.55 µM | SR 10.2 µM | SW-620 11.3 µM | T47D 5.36 µM | TK-10 11.7 µM | U-251 7.08 µM | UACC-257 8.41 µM | UACC-62 10.1 µM | UO-31 8.65 µM
9.82 µM: HCT-15

COc1ccc(-c2cc(-c3ccco3)c(C#N)c(=O)n2C2OC(COC(C)=O)C(OC(C)=O)C(OC(C)=O)C2OC(C)=O)cc1 (stereo not given)
inactive: A549 > 100 µM | CAKI-1 > 100 µM and 63.5 µM | COLO 205 > 100 µM | DLD-1 50.9 µM | DMS-273 > 100 µM | EKVX > 100 µM | HCC 2998 > 100 µM | HOP-92 24.9 µM and 22.1 µM | KM-20L2 > 100 µM | KM12 69.7 µM | LXFL 529 11.4 µM | M19-MEL 76 µM | MOLT-4 > 100 µM | NCI-H226 2.63 µM | NCI-H23 > 100 µM | OVCAR-4 > 100 µM | OVCAR-5 > 100 µM | RPMI-8226 5.58 µM and 3.96 µM | SK-MEL-5 > 100 µM | SNB-75 > 100 µM and 58.9 µM | SNB-78 > 100 µM | SR > 100 µM | SW-620 > 100 µM | TK-10 20 µM and 28.1 µM | UACC-257 > 100 µM
